The target of assay [1] is Eukaryotic translation initiation factor 2-alpha kinase 1 (Homo sapiens, UniProt Q9BQI3).
Another assay addresses T1, Ephrin type-B receptor 2 (Homo sapiens, UniProt P29323).
T1 sequence (P29323 whole entry): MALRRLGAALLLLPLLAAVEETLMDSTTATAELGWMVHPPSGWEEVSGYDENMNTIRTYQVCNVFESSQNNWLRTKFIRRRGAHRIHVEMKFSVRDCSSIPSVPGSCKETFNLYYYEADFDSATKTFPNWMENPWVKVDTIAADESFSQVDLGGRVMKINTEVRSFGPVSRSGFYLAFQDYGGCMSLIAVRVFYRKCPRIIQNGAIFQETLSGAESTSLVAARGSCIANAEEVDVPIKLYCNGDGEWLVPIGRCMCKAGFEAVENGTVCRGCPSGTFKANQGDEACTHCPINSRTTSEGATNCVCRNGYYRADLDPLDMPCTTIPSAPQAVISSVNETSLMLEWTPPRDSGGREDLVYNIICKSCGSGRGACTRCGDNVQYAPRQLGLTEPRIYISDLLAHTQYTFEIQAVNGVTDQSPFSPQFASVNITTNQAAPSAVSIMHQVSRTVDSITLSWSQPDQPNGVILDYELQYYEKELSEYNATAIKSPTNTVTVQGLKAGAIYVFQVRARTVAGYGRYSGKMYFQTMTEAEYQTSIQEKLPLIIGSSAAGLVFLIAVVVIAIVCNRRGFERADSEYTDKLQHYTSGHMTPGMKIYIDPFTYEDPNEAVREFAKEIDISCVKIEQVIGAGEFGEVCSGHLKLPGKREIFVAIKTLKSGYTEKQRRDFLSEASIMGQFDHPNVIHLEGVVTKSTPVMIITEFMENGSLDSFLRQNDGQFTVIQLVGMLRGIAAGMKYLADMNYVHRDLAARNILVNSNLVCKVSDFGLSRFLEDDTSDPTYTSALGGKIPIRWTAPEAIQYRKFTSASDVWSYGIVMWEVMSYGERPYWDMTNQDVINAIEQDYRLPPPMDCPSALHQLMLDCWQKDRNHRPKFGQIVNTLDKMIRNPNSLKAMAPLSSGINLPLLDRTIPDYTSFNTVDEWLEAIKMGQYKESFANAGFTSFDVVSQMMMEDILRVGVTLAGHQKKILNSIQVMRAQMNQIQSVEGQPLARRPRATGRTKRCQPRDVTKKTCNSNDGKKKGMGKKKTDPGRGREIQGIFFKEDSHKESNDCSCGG

The target of a further assay is T2, Scaffold protein ILK (Homo sapiens, UniProt Q13418).
T2 sequence (Q13418 whole entry): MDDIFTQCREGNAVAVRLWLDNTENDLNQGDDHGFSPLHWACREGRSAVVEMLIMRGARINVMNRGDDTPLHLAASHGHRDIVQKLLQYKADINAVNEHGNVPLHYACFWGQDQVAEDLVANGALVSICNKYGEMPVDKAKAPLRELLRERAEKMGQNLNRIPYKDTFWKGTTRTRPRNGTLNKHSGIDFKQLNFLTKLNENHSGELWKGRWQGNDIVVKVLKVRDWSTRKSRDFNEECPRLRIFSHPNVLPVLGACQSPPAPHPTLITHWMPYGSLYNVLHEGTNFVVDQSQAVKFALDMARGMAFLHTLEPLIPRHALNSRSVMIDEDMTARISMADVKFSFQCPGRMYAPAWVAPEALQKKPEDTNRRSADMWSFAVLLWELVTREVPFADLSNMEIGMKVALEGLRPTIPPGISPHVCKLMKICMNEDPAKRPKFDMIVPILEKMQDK

In assay [2] the target is T3, Signal recognition particle receptor subunit alpha (Homo sapiens, UniProt P08240).
T3 sequence (P08240 whole entry): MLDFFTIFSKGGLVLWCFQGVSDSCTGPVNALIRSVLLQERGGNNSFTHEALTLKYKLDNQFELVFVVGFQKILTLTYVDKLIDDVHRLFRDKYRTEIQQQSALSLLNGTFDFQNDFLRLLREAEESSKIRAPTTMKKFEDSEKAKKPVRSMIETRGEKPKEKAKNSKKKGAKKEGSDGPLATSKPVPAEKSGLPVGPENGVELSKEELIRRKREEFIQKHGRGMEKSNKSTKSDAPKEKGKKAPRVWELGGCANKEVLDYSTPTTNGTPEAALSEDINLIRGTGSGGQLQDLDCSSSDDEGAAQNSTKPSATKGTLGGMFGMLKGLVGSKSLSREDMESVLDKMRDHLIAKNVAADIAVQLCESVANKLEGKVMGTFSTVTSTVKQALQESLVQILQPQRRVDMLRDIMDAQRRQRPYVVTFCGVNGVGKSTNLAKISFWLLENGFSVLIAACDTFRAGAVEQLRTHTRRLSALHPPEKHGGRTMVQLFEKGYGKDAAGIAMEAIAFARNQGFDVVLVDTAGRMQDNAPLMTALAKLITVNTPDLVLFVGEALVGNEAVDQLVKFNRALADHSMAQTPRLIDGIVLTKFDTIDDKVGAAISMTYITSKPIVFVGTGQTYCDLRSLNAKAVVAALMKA

Assay [3] addresses Platelet-derived growth factor receptor beta (Homo sapiens, UniProt P09619).
Assay [4] addresses Hepatocyte growth factor receptor (Homo sapiens, UniProt P08581).
Assay [5] addresses T4, Calcium/calmodulin-dependent protein kinase type IV (Homo sapiens, UniProt Q16566).
T4 sequence (Q16566 whole entry): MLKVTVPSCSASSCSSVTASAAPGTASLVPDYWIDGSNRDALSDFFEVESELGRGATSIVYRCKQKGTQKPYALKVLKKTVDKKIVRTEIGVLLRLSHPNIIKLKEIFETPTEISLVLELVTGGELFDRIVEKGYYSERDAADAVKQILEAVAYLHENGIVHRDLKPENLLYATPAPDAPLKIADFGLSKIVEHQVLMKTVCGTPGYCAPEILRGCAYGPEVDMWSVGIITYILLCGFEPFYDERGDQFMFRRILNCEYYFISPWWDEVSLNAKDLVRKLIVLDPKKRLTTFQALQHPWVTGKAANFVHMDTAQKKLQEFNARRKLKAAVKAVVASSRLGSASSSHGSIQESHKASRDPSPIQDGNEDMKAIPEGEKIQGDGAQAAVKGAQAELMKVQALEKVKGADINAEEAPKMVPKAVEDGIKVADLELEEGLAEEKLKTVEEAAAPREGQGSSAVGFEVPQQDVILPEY

For assay [6], the target named is Elongation factor Tu, mitochondrial (Homo sapiens, UniProt P49411).

The source made the active and inactive calls. Cut-off read from the data, not from the text of the source, for most assays here: actives have a measured Kd and inactives only a lower limit.

For orientation: Kd means the free concentration of one partner at which half of the binding sites on the other are occupied at equilibrium, for simple one-to-one binding.
Note: in the data inactive means no Kd found up to 30 µM.

Sequence of Eukaryotic translation initiation factor 2-alpha kinase 1 (Q9BQI3 whole entry): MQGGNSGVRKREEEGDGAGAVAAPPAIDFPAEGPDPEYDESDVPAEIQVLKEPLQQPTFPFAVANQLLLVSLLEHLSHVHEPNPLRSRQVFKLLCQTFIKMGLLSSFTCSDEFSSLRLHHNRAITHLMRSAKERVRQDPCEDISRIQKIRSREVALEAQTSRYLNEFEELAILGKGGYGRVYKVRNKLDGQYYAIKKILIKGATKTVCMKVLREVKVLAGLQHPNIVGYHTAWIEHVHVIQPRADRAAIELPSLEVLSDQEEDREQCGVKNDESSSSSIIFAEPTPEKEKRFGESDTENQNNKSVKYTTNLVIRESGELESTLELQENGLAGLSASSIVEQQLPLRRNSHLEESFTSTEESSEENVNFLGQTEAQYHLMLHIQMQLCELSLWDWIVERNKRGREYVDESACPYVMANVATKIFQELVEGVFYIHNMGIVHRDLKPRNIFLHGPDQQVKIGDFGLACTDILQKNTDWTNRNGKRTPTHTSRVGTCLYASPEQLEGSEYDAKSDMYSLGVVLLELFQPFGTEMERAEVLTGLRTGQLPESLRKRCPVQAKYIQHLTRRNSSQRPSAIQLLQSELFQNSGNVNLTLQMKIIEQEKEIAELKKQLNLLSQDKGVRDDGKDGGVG
Sequence of Hepatocyte growth factor receptor (P08581 whole entry): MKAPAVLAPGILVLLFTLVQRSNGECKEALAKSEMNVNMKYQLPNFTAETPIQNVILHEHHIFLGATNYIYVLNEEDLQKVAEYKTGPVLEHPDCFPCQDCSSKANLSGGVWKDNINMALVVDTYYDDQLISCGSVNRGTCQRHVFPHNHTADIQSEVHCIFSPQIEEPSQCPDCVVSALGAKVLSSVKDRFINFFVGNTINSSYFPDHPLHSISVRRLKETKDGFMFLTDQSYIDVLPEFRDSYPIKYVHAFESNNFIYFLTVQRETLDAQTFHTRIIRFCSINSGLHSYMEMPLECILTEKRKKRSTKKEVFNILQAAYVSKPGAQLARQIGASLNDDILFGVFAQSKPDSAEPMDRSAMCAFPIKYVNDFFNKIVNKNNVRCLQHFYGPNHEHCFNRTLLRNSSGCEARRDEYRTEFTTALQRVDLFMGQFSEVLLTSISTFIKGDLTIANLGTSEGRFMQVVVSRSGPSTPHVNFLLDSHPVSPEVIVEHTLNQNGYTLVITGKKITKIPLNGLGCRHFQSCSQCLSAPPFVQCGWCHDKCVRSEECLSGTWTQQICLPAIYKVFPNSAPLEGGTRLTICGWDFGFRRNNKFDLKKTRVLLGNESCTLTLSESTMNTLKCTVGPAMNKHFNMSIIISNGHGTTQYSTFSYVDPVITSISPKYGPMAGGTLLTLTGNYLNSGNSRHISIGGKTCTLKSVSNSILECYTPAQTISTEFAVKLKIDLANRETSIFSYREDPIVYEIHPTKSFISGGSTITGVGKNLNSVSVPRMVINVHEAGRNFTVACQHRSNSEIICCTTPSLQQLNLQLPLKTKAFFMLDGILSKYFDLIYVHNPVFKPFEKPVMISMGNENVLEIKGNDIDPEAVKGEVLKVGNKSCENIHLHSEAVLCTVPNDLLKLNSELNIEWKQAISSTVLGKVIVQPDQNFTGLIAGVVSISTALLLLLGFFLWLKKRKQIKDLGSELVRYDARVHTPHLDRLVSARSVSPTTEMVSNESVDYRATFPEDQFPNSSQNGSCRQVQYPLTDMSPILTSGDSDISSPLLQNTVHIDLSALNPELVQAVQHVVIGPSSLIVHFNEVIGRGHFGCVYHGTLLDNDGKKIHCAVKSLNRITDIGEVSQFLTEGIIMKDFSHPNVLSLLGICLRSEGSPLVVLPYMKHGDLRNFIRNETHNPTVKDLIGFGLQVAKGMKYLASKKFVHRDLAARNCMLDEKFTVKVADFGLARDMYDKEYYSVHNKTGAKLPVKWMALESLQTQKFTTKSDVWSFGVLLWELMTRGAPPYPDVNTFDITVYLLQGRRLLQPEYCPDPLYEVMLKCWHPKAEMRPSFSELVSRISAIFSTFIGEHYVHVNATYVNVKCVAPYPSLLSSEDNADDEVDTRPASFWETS
Sequence of Platelet-derived growth factor receptor beta (P09619 whole entry): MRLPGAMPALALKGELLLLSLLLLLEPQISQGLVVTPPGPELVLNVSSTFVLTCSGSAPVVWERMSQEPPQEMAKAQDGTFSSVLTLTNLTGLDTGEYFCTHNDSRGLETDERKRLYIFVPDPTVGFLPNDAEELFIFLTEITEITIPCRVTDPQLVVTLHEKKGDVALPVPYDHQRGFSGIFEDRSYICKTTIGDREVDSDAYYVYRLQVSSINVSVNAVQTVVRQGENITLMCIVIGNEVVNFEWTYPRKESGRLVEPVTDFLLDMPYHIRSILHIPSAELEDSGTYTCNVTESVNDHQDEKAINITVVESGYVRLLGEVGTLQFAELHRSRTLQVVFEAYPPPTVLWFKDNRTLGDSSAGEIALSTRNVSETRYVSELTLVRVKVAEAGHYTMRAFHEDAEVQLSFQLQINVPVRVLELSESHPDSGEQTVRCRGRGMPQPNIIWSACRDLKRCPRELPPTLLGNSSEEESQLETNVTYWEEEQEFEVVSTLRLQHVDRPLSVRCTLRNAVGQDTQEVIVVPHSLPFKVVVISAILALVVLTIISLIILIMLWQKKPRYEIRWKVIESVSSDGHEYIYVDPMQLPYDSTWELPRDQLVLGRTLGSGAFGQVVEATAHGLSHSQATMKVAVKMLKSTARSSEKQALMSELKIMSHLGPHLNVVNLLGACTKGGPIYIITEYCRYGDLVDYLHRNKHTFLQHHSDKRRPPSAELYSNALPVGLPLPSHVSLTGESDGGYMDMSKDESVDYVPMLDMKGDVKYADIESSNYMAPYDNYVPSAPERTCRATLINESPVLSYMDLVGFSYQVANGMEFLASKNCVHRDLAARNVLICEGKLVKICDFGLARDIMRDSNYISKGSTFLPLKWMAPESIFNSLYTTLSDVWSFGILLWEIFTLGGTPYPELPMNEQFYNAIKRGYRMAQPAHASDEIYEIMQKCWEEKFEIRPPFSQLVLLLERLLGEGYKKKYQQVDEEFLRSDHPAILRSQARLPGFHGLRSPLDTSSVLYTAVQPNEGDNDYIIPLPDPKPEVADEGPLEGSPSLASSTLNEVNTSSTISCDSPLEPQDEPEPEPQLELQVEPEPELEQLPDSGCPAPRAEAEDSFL

Regarding `C[C@@H](Oc1cc(C(=O)Nc2ccc(C(=O)N3CCN(C)CC3)cc2)nnc1N)c1c(Cl)ccc(F)c1Cl`, the Kd was > 30 µM (inactive) in assay [1]; > 30 µM (inactive) on Ephrin type-B receptor 2; > 30 µM (inactive) on Scaffold protein ILK; > 30 µM (inactive) in assay [2]; > 30 µM (inactive) in assay [3]; 0.032 µM in assay [4]. Also, the Kd in assay [5] and in assay [6] was > 30 µM (inactive) each time.
For the molecule `C[C@H]1CNCCCN1S(=O)(=O)c1cccc2cncc(F)c12`, the Kd (in assay [1]; at Ephrin type-B receptor 2; on Scaffold protein ILK; in assay [3]; in assay [4]; in assay [5]) was > 30 µM (inactive) in each case. Further, in assay [6], the Kd was > 30 µM (inactive).
In the case of `CCNC(=O)C#Cc1ccc2c(c1)NC(=O)/C2=C(\Nc1ccc(CN(C)C)cc1)c1ccccc1`, the Kd (in assay [1]; at Ephrin type-B receptor 2; at Scaffold protein ILK; in assay [2]; in assay [4]; in assay [5]) was > 30 µM (inactive) throughout. Besides, the Kd in assay [6] is > 30 µM (inactive).
For the molecule `Cc1nc2cc(-c3nn(C(C)C)c4ncnc(N)c34)ccc2o1`, the Kd in assay [1] was > 30 µM (inactive); on Ephrin type-B receptor 2 it was > 30 µM (inactive); at Scaffold protein ILK, > 30 µM (inactive); in assay [2] it was > 30 µM (inactive); in assay [4], > 30 µM (inactive); in assay [5] it was 5.96 µM (active). For the same molecule, the Kd in assay [6] is > 30 µM (inactive).
As for `Nc1ncnc2c1c(-c1cccc(OCc3ccccc3)c1)cn2[C@H]1C[C@@H](CN2CCC2)C1` [AEW-541], the Kd (in assay [1]; on Ephrin type-B receptor 2; on Scaffold protein ILK; in assay [3]; in assay [4]; in assay [5]) was > 30 µM (inactive) throughout. The Kd in assay [6] is > 30 µM (inactive).
For the molecule `Cc1nc(NC(=O)N2CCC[C@H]2C(N)=O)sc1-c1ccnc(C(C)(C)C(F)(F)F)c1` [ALPELISIB], the Kd (in assay [1]; at Ephrin type-B receptor 2; in assay [2]; in assay [3]; in assay [4]; in assay [6]) was > 30 µM (inactive) in each case.
For the molecule `Cc1csc(-c2nnc(Nc3ccc(Oc4ncccc4-c4ccnc(N)n4)cc3)c3ccccc23)c1` [AMG-900], the Kd in assay [1] is > 30 µM (inactive); at Ephrin type-B receptor 2, > 30 µM (inactive); in assay [2], > 30 µM (inactive); in assay [3], > 30 µM (inactive); in assay [4], > 30 µM (inactive); in assay [5], 1.82 µM (active). The Kd in assay [6] is > 30 µM (inactive).
Consider `COc1cc([C@@H]2c3cc4c(cc3[C@H](O)[C@H]3COC(=O)[C@@H]23)OCO4)cc(OC)c1OC` [AXL-1717], for which the Kd (in assay [1]; at Ephrin type-B receptor 2; on Scaffold protein ILK; in assay [2]; in assay [3]; in assay [4]) was > 30 µM (inactive) in each case. Also, the Kd in assay [5] and in assay [6] was > 30 µM (inactive) throughout.
Regarding `CCn1c(C(=O)N(C2CC2)C2CC2)cc2c3c(ncn3C)c(Nc3cc(C)n(C)n3)nc21` [BMS-911543], the Kd (in assay [1]; on Ephrin type-B receptor 2; on Scaffold protein ILK; in assay [2]; in assay [3]; in assay [4]) was > 30 µM (inactive) in each case. The Kd in assay [5] and in assay [6] was > 30 µM (inactive) each time.
On to `Cc1cc(Nc2ncc(Cl)c(Nc3ccccc3S(=O)(=O)C(C)C)n2)c(OC(C)C)cc1C1CCNCC1` [CERITINIB], for which the Kd (in assay [1]; on Ephrin type-B receptor 2; on Scaffold protein ILK; in assay [2]; in assay [3]; in assay [4]) was > 30 µM (inactive) throughout. Further, the Kd in assay [5] is 0.635 µM (active); in assay [6], > 30 µM (inactive).
Consider `COCC(=O)NC/C=C/c1ccc2ncnc(Nc3ccc(Oc4ccc(C)nc4)c(C)c3)c2c1` [CP-724714], for which the Kd (in assay [1]; at Ephrin type-B receptor 2; on Scaffold protein ILK; in assay [2]; in assay [3]; in assay [4]) was > 30 µM (inactive) in each case. For the same molecule, the Kd in assay [5] and in assay [6] was > 30 µM (inactive) throughout.
On to `Cn1cc(C2=C(c3cn(C4CCN(Cc5ccccn5)CC4)c4ccccc34)C(=O)NC2=O)c2ccccc21` [ENZASTAURIN], for which the Kd (at Scaffold protein ILK; in assay [6]) was > 30 µM (inactive) throughout.
For `Cc1nc2cc(-n3ncc(C(=O)c4cc5ccccc5[nH]4)c3N)ccc2[nH]1` [FGFR INHIBITOR DEBIO 1347], the Kd (in assay [1]; at Ephrin type-B receptor 2; on Scaffold protein ILK; in assay [2]; in assay [3]; in assay [4]) was > 30 µM (inactive) throughout. Further, in assay [6], the Kd was > 30 µM (inactive).
Take `Cn1ncc(Cl)c1-c1cc(C(=O)N[C@H](CN)Cc2ccc(F)c(F)c2)oc1Cl` [UPROSERTIB]: the Kd (in assay [1]; at Ephrin type-B receptor 2; at Scaffold protein ILK; in assay [2]; in assay [3]; in assay [4]) was > 30 µM (inactive) throughout. In addition, the Kd in assay [6] is > 30 µM (inactive).

These data come from ChEMBL document CHEMBL3991601, “The target landscape of clinical kinase drugs” (Science, 2017).
